In patent US20110251229A1 (priority 2007, published 2011):
Entries after “also recorded” stand apart in the source; their conditions may differ.

Experiments:
TLR4 mRNA = TLR4 mRNA expression in lumbar dorsal spinal cord after chronic intrathecal opioids; type: in vivo, rat; settings: 15 μg intrathecal once daily for 7 days, relative to GAPDH
[1] = test system: HAPI microglial cell line; assay: HAPI microglial cell line activation by LPS, mRNA; type: cell-based
Experimental: HAPI microglial cell line was used to examine the effects of (+)-naloxone on microglial activation by LPS. Whereas 100 ng/mL LPS produced elevations in mRNA for CD11b (microglial activation marker), interleukin (IL)-1b, and IL-6, 1 μM (+)-naloxone abolished each of these LPS-induced effects. See FIG. 20 (GAPDH=glyceraldehyde-3-phosphate-dehydrogenase).

[2] = test system: rats with chronic constriction injury of the sciatic nerve; assay: Chronic constriction injury (CCI)-induced allodynia, von Frey test; settings: for reversal of CCI-induced allodynia: 60 mg/kg s.c.; for reversal of neuropathic pain: rat, in vivo; for reversal of established CCI-induced allodynia: delivery intrathecally or systemically
[3] = test system: morphine analgesia in rats; assay: Potentiation of acute morphine analgesia, Hargreaves test; type: in vivo, rat
[4] = test system: RAW264.7 mouse macrophage cell line expressing GFP-tagged Akt1 (TLR4 signaling); type: cell-based
[5] = test system: astrocyte (GFAP) and microglia (CD11b/c) activation markers; assay: Glial activation markers (GFAP, CD11b/c) in L5 spinal cord of CCI rats, immunohistochemistry; type: in vivo, rat; settings: 60 μg/hr intrathecal across 4 days, vs vehicle; for CD11b/c expression: bilaterally; for GFAP expression in ipsilateral or contralateral dorsal horns: densitometry
Experimental: Following the final behavioral testing rats were transcardially perfused first with isotonic saline and then with fresh 4% paraformaldehyde/0.1 M phosphate buffer (4% PFA/PB, pH 7.4). After dissection and immersion post-fixation in 4% PFA/PB for an additional 24 hr, the lumbar spinal cords then dehydrated in 30% sucrose with 0.1% azide at 4° C. until slicing.
For immunohistochemistry, sections were treated to suppress endogenous peroxidase and to prevent staining of endogenous biotin. The sections were incubated in either primary mouse monoclonal anti-rat glial fibrillary acidic protein (GFAP) (1:500; to visualize astrocyte astrocyte activation; ICN Biomedicals, Costa Mesa, Calif.) or primary mouse monoclonal anti-rat OX-42 (1:500; to visualize microglial activation; BioSource, Camarillo, Calif.) for 24 hr at 4° C. The slides were then incubated in secondary biotinylated goat anti-mouse IgG antibody (1:500; Jackson ImmunoResearch, West Grove, Pa.) overnight at 4° C. Finally sections were reacted using the avidin-biotin complex procedure (ABC, Vector Elite kit; 1:100 in PBS-Triton; 2 hr; Vector laboratories, Burlingame, Calif.) and 3′,3′-diaminobenzidine (DAB; Sigma-Aldrich). Glucose oxidase (Sigma-Aldrich; type V-s; 0.02%) and beta-D-glucose (0.1%) were used to generate hydrogen peroxide. […] ammonium sulfate was added to the DAB solution (0.025% w/v) to intensify the reaction product. One series of sections was processed as described above except that the primary antibody was omitted from the incubation buffer (omission controls). The slides were dried overnight, cleared, and cover slipped.
Slides were viewed with an Olympus Vannox II bright-field microscope. Images were collected with a Cohu CCD camera coupled to an Apple PowerMac 7200 equipped with NIH Image software (version 1.60). Brightness and contrast were kept constant with the images not altered. The intensity of the light source was calibrated each day.
Representative sections (10×) of ipsilateral dorsal horns of neuropathic (CCI) rats treated intrathecally with 60 μg/hr (+)-naloxone ([…]), 60 μg/hr (−)-naloxone (FIG. 18F), and vehicle (FIG. 18G) are shown. […] Scale bar=500 μm.

human TLR4 = molecular target: T1, human TLR4 (Homo sapiens, UniProt O00206); type: cell-based
T1 construct: host or cells: HEK 293

morphine-treated rats = assay: Chronic systemic morphine & (+)-naloxone experiment (Hargreaves, precipitated withdrawal, weight); type: in vivo, rat
[6] = about 20 μg co-administered with morphine intrathecally
[7] = 12 mg/day s.c. minipump with 6 mg/day morphine, 7 days

T1 sequence (O00206 24-839): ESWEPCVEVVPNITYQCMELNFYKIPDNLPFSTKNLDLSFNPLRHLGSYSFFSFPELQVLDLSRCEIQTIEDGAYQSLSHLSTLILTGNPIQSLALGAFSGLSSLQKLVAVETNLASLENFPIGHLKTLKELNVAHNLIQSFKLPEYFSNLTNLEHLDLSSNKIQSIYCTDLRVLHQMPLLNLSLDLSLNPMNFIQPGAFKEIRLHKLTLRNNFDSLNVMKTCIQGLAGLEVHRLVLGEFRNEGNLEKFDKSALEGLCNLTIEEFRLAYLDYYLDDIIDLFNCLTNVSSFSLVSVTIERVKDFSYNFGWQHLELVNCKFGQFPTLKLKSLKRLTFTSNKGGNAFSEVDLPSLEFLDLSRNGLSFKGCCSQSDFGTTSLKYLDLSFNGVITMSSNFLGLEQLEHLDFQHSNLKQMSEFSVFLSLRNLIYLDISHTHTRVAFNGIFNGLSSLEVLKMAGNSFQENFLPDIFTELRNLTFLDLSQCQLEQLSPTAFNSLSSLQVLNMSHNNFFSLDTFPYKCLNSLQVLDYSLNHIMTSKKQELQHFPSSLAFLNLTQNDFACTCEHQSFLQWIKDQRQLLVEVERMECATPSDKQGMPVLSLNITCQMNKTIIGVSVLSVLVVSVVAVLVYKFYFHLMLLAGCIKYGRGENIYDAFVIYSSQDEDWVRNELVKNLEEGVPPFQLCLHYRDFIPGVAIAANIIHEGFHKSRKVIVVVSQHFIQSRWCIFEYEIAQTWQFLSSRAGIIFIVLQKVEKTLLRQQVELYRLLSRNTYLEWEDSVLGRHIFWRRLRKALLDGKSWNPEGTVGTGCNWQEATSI
T1 sequence (Q9Y6Y9 17-160 partner limits assumed): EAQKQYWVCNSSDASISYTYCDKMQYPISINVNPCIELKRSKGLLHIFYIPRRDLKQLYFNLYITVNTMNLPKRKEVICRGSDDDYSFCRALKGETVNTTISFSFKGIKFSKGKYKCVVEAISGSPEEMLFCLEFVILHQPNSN

Molecule: CCC(=O)C(C[C@H](C)N(C)C)(c1ccccc1)c1ccccc1 [(+)-methadone]
- TLR4 mRNA in lumbar dorsal spinal cord (TLR4 mRNA): significant elevation

Molecule: C=CCN1CC[C@]23c4c5ccc(O)c4O[C@H]2C(=O)CC[C@]3(O)[C@H]1C5 [(+)-naloxone, (+)-Naloxone]
- LPS-induced elevation in mRNA for CD11b ([1]; 1 μM with 100 ng/mL LPS): abolished
- LPS-induced elevation in mRNA for IL-6 ([1]; 1 μM with 100 ng/mL LPS): abolished
- LPS-induced elevation in mRNA for interleukin (IL)-1b ([1]; 1 μM with 100 ng/mL LPS): abolished
- reversal of CCI-induced allodynia ([2]; 30 min): not significantly
- reversal of CCI-induced allodynia ([2]; 90 min): reversed CCI-induced allodynia; also recorded: reversed established allodynia; also recorded: acutely reverses
- ipsilateral and contralateral mechanical allodynia ([2]; 100 mg/kg subcutaneous, 14 days after CCI): reliable attenuation
- reversal of neuropathic pain [2]: reverses neuropathic pain
- morphine analgesia ([3]; 20 μg intrathecal with subcutaneous morphine 4 mg/kg): significantly potentiated; also recorded: potentiation
- morphine analgesia [3, 6]: significant potentiation of analgesia
- morphine-induced Akt1 response ([4]; morphine 100 μM): blocked
- LPS-induced Akt1 response ([4]; preincubation 1mM prior to LPS 7.5 μg/mL): significantly attenuated
- CD11b/c expression [5]: reliable suppression
- GFAP expression in ipsilateral or contralateral dorsal horns [5]: neither (+)-nor (−)-naloxone affected
- M3G induced TLR4 signaling (human TLR4): attenuation
- antagonism of LPS activity at TLR4 (human TLR4): significant non-competitive antagonism; also recorded: non-competitively antagonizes
- effect on basal unstimulated SEAP expression (human TLR4): no substantial effect
- increase in the EC50 of LPS (human TLR4): 3 fold
- morphine induced TLR4 signaling (human TLR4): attenuation
- reduction in the Emax of LPS (human TLR4): 40%
- development of morphine-induced hyperalgesia (morphine-treated rats; [7]): blocked the development of morphine-induced hyperalgesia
- development of tolerance (morphine-treated rats; [7]): attenuated the development of tolerance
- morphine analgesia (morphine-treated rats; [7]): potentiated
- weight gain (morphine-treated rats; [7]): enabled normal weight gain
- withdrawal behaviors (morphine-treated rats; withdrawal precipitated by 100 mg/kg (−)-naltrexone on day 7): reduced withdrawal behaviors

Molecule: O=C1CC[C@]2(O)[C@@H]3Cc4ccc(O)c5c4[C@]2(CCN3CC2CC2)[C@@H]1O5 [(+)-naltrexone]
- reversal of established CCI-induced allodynia [2]: reversed established CCI-induced allodynia
- morphine analgesia [3, 6]: significant potentiation of analgesia

Molecule: CN1CC[C@]23c4c5ccc(O[C@@H]6O[C@H](C(=O)O)[C@@H](O)[C@H](O)[C@H]6O)c4O[C@H]2[C@@H](O)C=C[C@H]3[C@H]1C5 [M3G, morphine-3-glucuronide, reference compound]
- TLR4 agonist activity (human TLR4): showed TLR4 agonist activity

Molecule: CN1CC[C@]23c4c5ccc(O)c4O[C@H]2[C@@H](O[C@@H]2O[C@H](C(=O)O)[C@@H](O)[C@H](O)[C@H]2O)C=C[C@H]3[C@H]1C5 [M6G, morphine-6-glucuronide, reference compound]
- TLR4 agonist activity (human TLR4): not found to have any significant TLR4 agonist activity

Molecule: CCC(=O)C(CC(C)N(C)C)(c1ccccc1)c1ccccc1 (centres unmarked) [methadone, reference compound]
- TLR4 agonist activity (human TLR4): TLR4 agonists

Molecule: C=CCN1CC[C@]23c4c5ccc(O)c4O[C@H]2C(=O)CC[C@@]3(O)[C@H]1C5 [naloxone, reference compound]
- ipsilateral and contralateral allodynia ([2]; chronic intrathecal osmotic minipump, 20 or 60 ug/hr, 4-96 hr): attenuation

Molecule: COc1ccc2c3c1O[C@H]1C(=O)CC[C@@]4(O)[C@@H](C2)N(C)CC[C@]314 [oxycodone, reference compound]
- TLR4 agonist activity (human TLR4): TLR4 agonists

Molecule: CCOC(=O)C1(c2ccccc2)CCN(C)CC1 [pethadine/meperidine, meperidine, reference compound]
- TLR4 agonist activity (human TLR4): TLR4 agonists

Molecule: (−)-methadone
- TLR4 mRNA in lumbar dorsal spinal cord (TLR4 mRNA): significant elevation

Molecule: (−)-naloxone [reference compound]
- reversal of neuropathic pain [2]: reverses neuropathic pain
- CD11b/c expression [5]: reliable suppression
- GFAP expression in ipsilateral or contralateral dorsal horns [5]: neither (+)-nor (−)-naloxone affected

Molecule: (−)-naltrexone [reference compound]
- reversal of established CCI-induced allodynia [2]: reversed established CCI-induced allodynia

Molecule: Lipopolysaccharide [LPS, reference compound]
- mRNA for CD11b ([1]; 100 ng/mL): elevations
- mRNA for IL-6 ([1]; 100 ng/mL): elevations
- mRNA for interleukin (IL)-1b ([1]; 100 ng/mL): elevations
- clearance of GFP-Akt1 from the cytosol [4]: robust, rapid clearance
- EC50 (SEAP expression) (human TLR4): 0.21 ng/mL
- Emax (SEAP expression) (human TLR4): 40,956 arbitrary fluorescence units
